“Also recorded” adds a separate entry of the source. Residues, ends and D or L forms follow the SMILES beside them. No end group written: not given here. *: point of attachment. Biotin = O=C1N[C@H]2[C@H](CS[C@H]2CCCCC(=O)*)N1
What was measured:
integrin α5β1 [1] = target: T1, integrin α5β1 (Homo sapiens, UniProt P05556+P08648); assay: Competitive ELISA, Vi binding to integrin α5β1; conditions: excess competitor
T1 construct: purchased Bio-Techne
Protocol: (§1) Vi ([49]) and its mutants were produced as reported ([14]). HUVECs were cultured as reported ([14], [50]).
(§2) Plates coated with 2 μg mL^−1 integrin α5β1, PAI-1, or PAI-1-uPA complex (37 °C, 10 min) were incubated with B-Vi45-51, Vi, or 100 nM ViH46A, ViR48A, or ViH46A/R48A. Competition used excess Src, alanine mutants, or THGR peptides. Detection used horseradish peroxidase antibodies and 3,3′,5,5′-tetramethylbenzidine.

PAI-1 [2] = target: T2, PAI-1 (Homo sapiens, UniProt P05121); conditions: cited from earlier work
Text: We recently identified two distinct functional motifs in the Vi molecule: the HGR and the HNLSSEM motifs. […] These discrep ...

endothelial cells [3] = conditions: cited from earlier work
endothelial cells [4] = conditions: cited from earlier work; remark: listed apart in the source
integrin α5β1 [5] = target: T1, integrin α5β1; assay: Competitive ELISA, B-Vi45-51 binding to immobilized integrin α5β1; conditions: excess competitor
Protocol: as §1, §2

[6] = test system: HUVEC adhesion to fibronectin; assay: HUVEC adhesion to fibronectin; format: cell-based, human; conditions: 1 h
Protocol: HUVECs (43,000 cells cm^−2) were added and incubated at 37 °C for 1 h. Cells were washed twice and quantified by 3-(4,5-dimethylthiazol-2-yl)-2,5-diphenyltetrazolium bromide.

HUVECs [7] = assay: Endothelial cell proliferation (EdU); format: cell-based, human; conditions: 24 h; for Effect of ITGA5 knockdown on inhibition of endothelial proliferation: 100 nM Vi or Vi45-51, bFGF + VEGF, shITGA5 HUVEC vs WT; for Effect of anti-α5β1 antibody on inhibition of VEGF + bFGF-induced proliferation: 100 nM Vi or Vi45-51, 20 μg mL^−1 anti-α5β1
Protocol: As reported ([14]), HUVECs were serum-starved for 8 h and treated with 100 nM Vi45-51 or Vi, bFGF + VEGF, and 20 μg mL^−1 anti-α5β1 antibody in 20% fetal bovine serum for 24 h. EdU incorporation was detected with Azide Fluor 545 (Sigma).

HUVECs [8] = assay: Matrigel invasion; format: cell-based, human; conditions: 100 nM Vi or Vi45-51, 16 h; shITGA5 HUVEC vs WT
Protocol: As reported ([14]), HUVECs on Matrigel-coated Transwells were treated with 100 nM of Vi45-51 or Vi. After 16 h, invading cells were counted.

HUVECs [9] = assay: Tube formation on Matrigel; format: cell-based, human; conditions: 100 nM Vi or Vi45-51, 6 h; shITGA5 HUVEC vs WT
Protocol: HUVEC tubular network formation was evaluated as reported ([14], [51]). HUVECs were seeded on Matrigel and treated with 100 nM Vi or Vi45-51 for 6 h. Micrographs were analyzed by Angiogenesis Analyzer ([52]).

HUVEC monolayers = assay: Endothelial permeability (TEER); format: cell-based, human; conditions: 100 nM Vi or Vi45-51 for 1 h, then 50 ng mL^−1 VEGF; TEER 120 min; n = 6
Protocol: HUVECs were grown to confluency on 0.4 μm pore Transwells, treated with 100 nM Vi45-51 or Vi for 1 h, then stimulated with 50 ng mL^−1 VEGF. Transendothelial electrical resistance was recorded for 120 min using the EVOM2 meter (World Precision Instruments).

[10] = test system: Matrigel plug vascularization (Pecam1); assay: Matrigel plug assay; format: in vivo, male C57BL/6 mice; conditions: mice, s.c. plugs, 100 nM Vi or Vi45-51, bFGF + VEGF, 20 μg mL^−1 anti-α5β1; 7 days; Pecam1 mRNA
Protocol: As previously described ([14], [53], [54]), 6-week-old male C57BL/6 mice were subcutaneously injected with two 0.5 ml plugs supplemented with 300 ng mL^−1 bFGF and 100 ng mL^−1 VEGF, 100 nM Vi or Vi45-51, and 20 μg mL^−1 anti-integrin α5β1 antibody. After 7 days, plugs were collected, and Pecam1, relative to GAPDH, was quantified by quantitative PCR as reported ([14]). Procedures followed institutional ethical approval (Bioethics Committee, Instituto de Neurobiología, UNAM) and were in accordance with the Guide for the Care and Use of Laboratory Animals (http://www.ncbi.nlm.nih.gov/books/NBK54050/).

integrin α5 = assay: Pull-down and Western blot, integrin α5; format: binding, human (HUVEC lysates)
Protocol: (§3) To test whether Vi’s HGR motif binds integrin α5β1, human umbilical vein endothelial cells (HUVECs) were treated with a biotinylated peptide comprising residues 45 to 51 (B-Vi45-51) and subjected to pull-down and Western blot.
(§4) HUVECs treated with 500 nM B-Vi45-51, 20 ng mL^−1 bFGF, and 25 ng mL^−1 VEGF for 1 h were lysated in radioimmunoprecipitation assay, sonicated, incubated 30 min at 37 °C, and pulled down with Dynabeads Streptavidin T1 (Thermo). Eluates were analyzed by a Western blot for integrin α5, PAI-1, and uPAR.

PAI-1 [11] = assay: Pull-down and Western blot, PAI-1; format: binding, human (HUVEC lysates); conditions: HUVEC lysates; 500 nM B-Vi45-51, 1 h; Western blot
Protocol: as §3, §4

uPAR = assay: Pull-down and Western blot, uPAR; format: binding, human (HUVEC lysates); conditions: HUVEC lysates; 500 nM B-Vi45-51, 1 h; Western blot
Protocol: as §3, §4

integrin α5β1 [12] = target: T1, integrin α5β1; assay: ELISA, binding to immobilized integrin α5β1; conditions: dose-dependent, plates coated with 2 μg mL^−1
Protocol: as §1, §2

PAI-1-uPA complex = PAI-1-uPA complex (Homo sapiens, UniProt P00749+P05121); assay: ELISA, binding to immobilized PAI-1-uPA complex; conditions: for Binding to immobilized PAI-1-uPA complex: plates coated with 2 μg mL^−1
Protocol: as §2

PAI-1 [13] = target: T2, PAI-1; assay: ELISA, binding to immobilized PAI-1
Protocol: as §2

HUVECs [14] = assay: Apoptosis (Cell Death Detection ELISA); format: cell-based, human; conditions: 100 nM Vi, 24 h; shITGA5 HUVEC vs WT
Protocol: As reported ([13]), HUVEC were treated with 100 nM Vi or Vi45-51 for 24 h, and apoptosis was analyzed using the Cell Death Detection ELISA kit (Roche).

PAI-1 knockout mice = conditions: cited from earlier work
Text: The HGR motif is the sole antiangiogenic determinant of Vi, as its mutation leads to the loss of Vi’s antiangiogenic function ([14]). Given that Vi binds to integrin α5β1 via its HGR motif and that knockdown of ITGA5 abolishes the effects of Vi on endothelial cell proliferation, invasion, vascular permeability, and tube formation in vitro, while an antibody against integrin α5β1 suppresses the antiangiogenic effect of Vi in the in vivo Matrigel plug assay, integrin α5β1 emerges as the binding partner mediating the antiangiogenic activity of Vi. Integrin α5β1 is critical for angiogenesis ([16]) ...

THGR [HGR-containing tetrapeptide THGR]
Inhibition of Vi binding to integrin α5β1 (integrin α5β1 [1]): blocked Vi–integrin interaction

HNLSSEM [HNLSSEM motif]
Binding to PAI-1 (literature) (PAI-1 [2]): mediates Vi binding to PAI-1 | Apoptosis induction via uPAR-dependent mechanism (endothelial cells [3]): induces endothelial apoptosis through a uPAR-dependent mechanism

Ac-PHSCN-NH2 [ATN-161, PHSRN-based peptide (Ac-PHSCN-NH2), reference compound]
Induction of apoptosis (anoikis) (endothelial cells [3]): induce apoptosis through anoikis | Disruption of endothelial adhesion (endothelial cells [4]): disrupt endothelial adhesion

H46A: alanine-scanning mutant peptide, alanine substitution at H46 (TAGRGFI)
Inhibition of B-Vi45-51 binding to integrin α5β1 (integrin α5β1 [5]): abolished inhibition

cilengitide [reference compound]
Induction of apoptosis (anoikis) (endothelial cells [3]): induce apoptosis through anoikis | Disruption of endothelial adhesion (endothelial cells [4]): disrupt endothelial adhesion

THGRGFI [Vi45-51]
Inhibition of B-Vi45-51 binding to integrin α5β1 (integrin α5β1 [5]): inhibited B-Vi45-51 binding | HUVEC adhesion to fibronectin at 1 μM ([6]; 1 μM, fibronectin 1 μg cm^−2, 37 °C, Fig. 4C): enhanced fibronectin-mediated adhesion | EC50 [6]: 4.55 nM | HUVEC adhesion to fibronectin, dose–response ([6]; fibronectin 1 μg cm^−2, 37 °C): increased the adhesion in a dose-dependent manner | Effect of ITGA5 knockdown on inhibition of endothelial proliferation (HUVECs [7]): abolished the inhibitory effects | Effect of anti-α5β1 antibody on inhibition of VEGF + bFGF-induced proliferation (HUVECs [7]): prevented the inhibitory effects | Effect of ITGA5 knockdown on inhibition of invasion (HUVECs [8]): abolished the inhibitory effects | Effect of ITGA5 knockdown on inhibition of tube formation (HUVECs [9]): abolished the inhibitory effects | Effect of ITGA5 silencing on inhibition of VEGF-induced permeability (HUVEC monolayers): ablated the inhibitory effect | Effect of anti-α5β1 antibody on inhibition of Matrigel plug vascularization [10]: prevented the inhibitory effects

R48A: Vi45-51 mutated by alanine in R48 (THGAGFI)
Inhibition of B-Vi45-51 binding to integrin α5β1 (integrin α5β1 [5]): abolished inhibition | HUVEC adhesion to fibronectin, dose–response ([6]; fibronectin 1 μg cm^−2, 37 °C): did not

CC[C@H](C)[C@H](NC(=O)[C@H](Cc1ccccc1)NC(=O)CNC(=O)[C@H](CCCNC(=N)N)NC(=O)CNC(=O)[C@H](Cc1c[nH]cn1)NC(=O)[C@@H](NC(=O)CCCC[C@@H]1SC[C@@H]2NC(=O)N[C@@H]21)[C@@H](C)O)C(=O)O [B-Vi45-51] (Biotin-THGRGFI-OH; N-terminus and C-terminus assumed)
Pull-down of integrin α5 (integrin α5; HUVEC lysates, 500 nM B-Vi45-51, 1 h, Dynabeads Streptavidin T1, Western blot, ∼145 kDa): Integrin α5 was precipitated | Effect of VEGF + bFGF on pull-down of integrin α5 (integrin α5; HUVECs, 500 nM B-Vi45-51, 20 ng mL^−1 bFGF, 25 ng mL^−1 VEGF, 1 h): did not affect binding | Pull-down of PAI-1 (PAI-1 [11]): failed to pull down | Pull-down of uPAR (uPAR): failed to pull down | Binding to immobilized integrin α5β1 (integrin α5β1 [12]): dose-dependent binding | Binding to immobilized PAI-1-uPA complex (PAI-1-uPA complex): not to PAI-1 or the PAI-1-uPA complex

vasoinhibin [Vi]
Binding to immobilized integrin α5β1 (integrin α5β1 [12]): bound all three | Kd (PAI-1 [13]; immobilized PAI-1, at least three independent experiments): 528 nM | Binding to immobilized PAI-1 (PAI-1 [13]; plates coated with 2 μg mL^−1): bound all three | Kd (PAI-1-uPA complex; immobilized PAI-1-uPA complex, at least three independent experiments): 406 nM | Binding to immobilized PAI-1-uPA complex (PAI-1-uPA complex): bound all three | Effect of ITGA5 knockdown on inhibition of endothelial proliferation (HUVECs [7]): abolished the inhibitory effects | Effect of anti-α5β1 antibody on inhibition of VEGF + bFGF-induced proliferation (HUVECs [7]): prevented the inhibitory effects | Effect of ITGA5 knockdown on inhibition of invasion (HUVECs [8]): abolished the inhibitory effects | Effect of ITGA5 knockdown on inhibition of tube formation (HUVECs [9]): abolished the inhibitory effects | Effect of ITGA5 silencing on inhibition of VEGF-induced permeability (HUVEC monolayers): ablated the inhibitory effect | Effect of ITGA5 knockdown on Vi-induced apoptosis (HUVECs [14]): did not abolish Vi-induced apoptosis; in fact, it was even slightly increased; also recorded: did not prevent, but slightly enhanced | Effect of anti-α5β1 antibody on inhibition of Matrigel plug vascularization [10]: prevented the inhibitory effects | Antiangiogenic and antitumor effects in PAI-1 knockout mice (PAI-1 knockout mice): lost in PAI-1 knockout mice | Effect of antibodies against integrin α5β1 on Vi-induced endothelial cell apoptosis (endothelial cells [3]): partially prevented

N=C(N)NCCC[C@H](N)C(=O)NCC(=O)N[C@@H](CC(=O)O)C(=O)O [RGD, reference compound]
IC50 ([6]; dose–response, fibronectin 1 μg cm^−2, 37 °C, MTT read-out, nonlinear regression (r^2 > 0.8), at least three independent experiments, read-out: IC50, inhibition of HUVEC adhesion to fibronectin): 61.3 nM
